Reference: ChEMBL document CHEMBL1153914, “Synthesis, binding affinity and SAR of new benzolactam derivatives as dopamine D3 receptor ligands” (Bioorg Med Chem Lett, 2009)

Key:
[1] = molecular target: T1, D(1A) dopamine receptor (Homo sapiens, UniProt P21728); assay: Displacement of [3H]SCH23390 from human dopamine D1 receptor
[2] = molecular target: D(3) dopamine receptor (Homo sapiens, UniProt P35462); assay: Displacement of [3H]spiperone from human dopamine D3 receptor
[3] = molecular target: T2, D(2) dopamine receptor (Homo sapiens, UniProt P14416); assay: Displacement of [3H]spiperone from human dopamine D2 receptor
[4] = molecular target: T2, D(2) dopamine receptor; assay: Displacement of [3H]spiperone from human dopamine D2 receptor at 10 uM
[5] = molecular target: T1, D(1A) dopamine receptor; assay: Displacement of [3H]SCH23390 from human dopamine D1 receptor at 10 uM
[6] = molecular target: 5-hydroxytryptamine receptor 2A (Homo sapiens, UniProt P28223); assay: Displacement of [3H]ketanserin from 5HT2A receptor
[7] = species: Homo sapiens; assay: Selectivity ratio of Ki for human dopamine D2 receptor to Ki for human dopamine D3 receptor
[8] = Selectivity for dopamine D3 receptor over dopamine D2 receptor

T1 sequence (P21728 whole entry): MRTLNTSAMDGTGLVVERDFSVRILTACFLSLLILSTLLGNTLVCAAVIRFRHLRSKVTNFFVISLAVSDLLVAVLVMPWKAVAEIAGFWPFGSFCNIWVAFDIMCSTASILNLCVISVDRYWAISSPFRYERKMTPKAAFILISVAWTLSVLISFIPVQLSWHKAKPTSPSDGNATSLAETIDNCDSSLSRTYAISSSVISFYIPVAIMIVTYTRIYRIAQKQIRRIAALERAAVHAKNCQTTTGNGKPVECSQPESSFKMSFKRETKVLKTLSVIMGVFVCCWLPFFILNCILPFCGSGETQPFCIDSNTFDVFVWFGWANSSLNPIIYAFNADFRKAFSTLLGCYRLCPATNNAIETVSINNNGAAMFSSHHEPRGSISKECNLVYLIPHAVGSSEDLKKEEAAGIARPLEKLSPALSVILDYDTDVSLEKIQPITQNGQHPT
Chain of D(3) dopamine receptor (P35462 whole entry): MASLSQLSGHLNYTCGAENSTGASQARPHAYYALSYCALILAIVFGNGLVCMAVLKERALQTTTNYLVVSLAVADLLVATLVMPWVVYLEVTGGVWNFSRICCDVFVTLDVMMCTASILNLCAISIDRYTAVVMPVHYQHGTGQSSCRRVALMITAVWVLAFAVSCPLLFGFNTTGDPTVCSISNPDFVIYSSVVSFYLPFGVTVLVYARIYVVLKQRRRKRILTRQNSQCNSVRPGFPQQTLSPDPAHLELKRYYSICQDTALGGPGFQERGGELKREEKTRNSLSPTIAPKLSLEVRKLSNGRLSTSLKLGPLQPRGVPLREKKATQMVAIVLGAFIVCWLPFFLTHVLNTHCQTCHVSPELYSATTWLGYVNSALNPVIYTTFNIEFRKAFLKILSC
T2 sequence (P14416 whole entry): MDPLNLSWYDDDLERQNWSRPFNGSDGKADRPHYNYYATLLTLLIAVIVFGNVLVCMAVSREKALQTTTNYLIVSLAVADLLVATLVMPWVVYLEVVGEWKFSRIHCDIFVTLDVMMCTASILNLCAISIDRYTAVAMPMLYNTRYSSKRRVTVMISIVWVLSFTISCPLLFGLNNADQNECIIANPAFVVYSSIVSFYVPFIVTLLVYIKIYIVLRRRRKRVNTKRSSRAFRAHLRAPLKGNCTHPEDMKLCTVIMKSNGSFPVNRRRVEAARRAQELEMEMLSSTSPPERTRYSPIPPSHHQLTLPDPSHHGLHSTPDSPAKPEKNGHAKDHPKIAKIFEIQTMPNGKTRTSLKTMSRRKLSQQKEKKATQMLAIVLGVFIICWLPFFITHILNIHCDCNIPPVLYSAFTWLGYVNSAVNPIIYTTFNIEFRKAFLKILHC
Chain of 5-hydroxytryptamine receptor 2A (P28223 whole entry): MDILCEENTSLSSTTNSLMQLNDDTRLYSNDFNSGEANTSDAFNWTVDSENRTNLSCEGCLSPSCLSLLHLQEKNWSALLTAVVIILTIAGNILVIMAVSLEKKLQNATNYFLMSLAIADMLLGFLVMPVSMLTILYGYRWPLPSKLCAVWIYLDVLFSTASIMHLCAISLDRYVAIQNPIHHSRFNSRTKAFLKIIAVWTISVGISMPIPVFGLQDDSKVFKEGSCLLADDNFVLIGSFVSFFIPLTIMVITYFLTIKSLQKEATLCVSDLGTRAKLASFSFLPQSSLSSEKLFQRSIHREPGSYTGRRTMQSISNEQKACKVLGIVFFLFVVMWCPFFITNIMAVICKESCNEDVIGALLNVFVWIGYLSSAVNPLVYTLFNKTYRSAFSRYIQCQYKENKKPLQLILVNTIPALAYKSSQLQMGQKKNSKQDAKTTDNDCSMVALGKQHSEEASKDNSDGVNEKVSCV

Ki [1] [nM]	Ki ([2]; read-out: pKi (converted)) [nM]	Ki [3] [nM]	Activity [4] [%]	Activity [5] [%]	SMILES	further results
427	40.7	158	–	–	COc1cccc(N2CCN(CCCCN3CCc4ccccc4C3=O)CC2)c1	–
–	8320	–	36.4	46	O=C1c2ccccc2CCCN1CCCN1CCN(c2ncccn2)CC1	–
2040	–	–	57.5	–	O=C1c2ccccc2CCN1CCCCN1CCN(c2ccccn2)CC1	–
1740	14.5	36.3	–	–	O=C1c2ccccc2CCCN1CCCCN1CCN(c2cccc(Cl)c2Cl)CC1	Ki [6]: 10 nM; Ratio Ki [7]: 2.5
8710	631	151	–	–	O=C1c2ccccc2CCCN1CCCCN1CCN(c2ncccn2)CC1	–
1700	8320	–	12.4	–	O=C1c2ccccc2CCN1CCCN1CCN(c2ccccn2)CC1	–
–	10000	–	1.35	43.5	COc1ccc(N2CCN(CCCN3CCc4ccccc4C3=O)CC2)cc1	–
1780	162	11.5	–	–	O=C1c2ccccc2CCN1CCCCN1CCN(c2cccc(Cl)c2Cl)CC1	–
1450	209	–	59.9	–	O=C1c2ccccc2CCN1CCCN1CCN(c2cccc(Cl)c2Cl)CC1	–
–	8910	–	13.1	58.9	COc1ccc(N2CCN(CCCN3CCCCc4ccccc4C3=O)CC2)cc1	–
4900	1050	–	55.5	–	O=C1c2ccccc2CCCN1CCCN1CCN(c2cccc(C(F)(F)F)c2)CC1	–
977	32.4	20.4	–	–	COc1ccccc1N1CCN(CCCCCN2CCc3ccccc3C2=O)CC1	–
–	4170	–	26.3	57	O=C1c2ccccc2CCCN1CCCN1CCN(c2ccccn2)CC1	–
347	6.76	35.5	–	–	O=C1c2ccccc2CCN1CCCCN1CCN(c2ccccc2Cl)CC1	Ratio Ki [7]: 5.2
–	–	–	59	47.5	COc1ccc(N2CCN(CCCCN3CCCc4ccccc4C3=O)CC2)cc1	Ki ([2]; read-out: Ki): 40 nM
–	–	12.3	–	61.1	COc1ccccc1N1CCN(CCCCN2CCc3ccccc3C2=O)CC1	–
–	24500	–	0.36	40.8	O=C1c2ccccc2CCN1CCCN1CCN(c2ncccn2)CC1	–
2510	209	794	–	–	COc1ccccc1N1CCN(CCCN2CCCc3ccccc3C2=O)CC1	–
2690	1.58	3.63	–	–	COc1ccccc1N1CCN(CCCCN2CCCc3ccccc3C2=O)CC1	Ratio Ki [7]: 2.2
–	–	–	–	–	O=C(NCCCCN1CCN(c2cccc(Cl)c2Cl)CC1)c1cc2ccccc2s1	Selectivity ratio [8]: 7200
282	398	229	–	–	O=C1c2ccccc2CCCN1CCCCN1CCN(c2ccccn2)CC1	–
–	490	–	33.2	34.2	COc1ccc(N2CCN(CCCCN3CCc4ccccc4C3=O)CC2)cc1	–
–	1510	–	60.5	31.6	O=C1c2ccccc2CCN1CCCCN1CCN(c2ncccn2)CC1	–
1740	2400	–	52.4	–	O=C1c2ccccc2CCN1CCCN1CCN(c2cccc(C(F)(F)F)c2)CC1	–
2400	389	219	–	–	O=C1c2ccccc2CCCN1CCCN1CCN(c2cccc(Cl)c2Cl)CC1	–
–	1100	> 100000	1.1	42.8	COc1ccc(N2CCN(CCCN3CCCc4ccccc4C3=O)CC2)cc1	–
–	1580	–	50.4	59.5	COc1ccccc1N1CCN(CCCN2CCc3ccccc3C2=O)CC1	–
